In patent US20110171291A1, “PATHOLOGICALLY-ACTIVATED THERAPEUTICS” (Sanford-Burnham Medical Research Institute, priority 2010, published 2011):

Legend:
[1] = system: AMPA/KA-type glutamate receptor; assay: Primary screen of the LOPAC 1280 library: Fluo-4 NW calcium entry induced by kainate in cultured cerebrocortical neurons; type: cell-based; settings: three separate screens; 200 μM KA
Experimental: FIGS. 19a and 19b show the fluorescence response indicating calcium ion entry induced by Kainate (KA) at AMPA-type glutamate receptor channels in cultured neurons. Fluorescent dye loading is accomplished by adding Fluo-4 NW to cells at 37° C. for 20 min and at RT (room temperature) for 10 min. The cells are incubated with compounds to be screened (generally 1 to 10 μM in 1% DMSO) for 2 min, followed by incubation with 200 μM kainate (KA) for 10 min (20 μM KA is used for the second, lower concentration of agonist—not shown here). […] The Z-factor, a statistical indication of the robustness of a high-throughput screen, fluctuated between 0.54-0.73 through the time course. This range of Z-factors is more than adequate for HTS (a value of Z≧0.5 generally indicates a robust screen).
The disclosed methods screen for uncompetitive drugs against a number of targets. […] Primary neurons or cell lines are used that contain (or are genetically engineered to contain) a target molecule on their surface, such as the AMPA/kainate-type glutamate receptors with unedited GluR2 subunits or other molecules that result in intracellular Ca^2+ signaling, such as G-protein-coupled receptors. […] Screening (by quantifying the Ca^2+ response) with two concentrations of agonist for the target, a low concentration and a higher concentration, against chemicals in the library administered at a single micromolar concentration. For these AMPA receptors, kainate can be used as the agonist for HTS because the responses are less desensitizing than those to AMPA. The agonist results in an increase in intracellular Ca^2+ that can be monitored by HTS using the Ca^2+ indicator dye fluo-4 NW.
Using cerebrocortical neurons and calcium-sensitive dyes, as described above, conditions have been optimized for screening for AMPA/Kainate-receptor antagonists. For this purpose, the following experimental parameters were varied: cell density, composition of culture medium, length of cultures, type of calcium-sensitive dye, and condition (temperature and length) of dye loading. The following protocol was established. […]

NMDA receptor = assay: Excitatory postsynaptic currents (EPSCs) recorded from the hippocampal autapse preparation; type: cell-based; settings: 1 μM
Excerpt: Note that the initial component of the EPSC is mediated by AMPA-sensitive glutamate receptors, whereas a delayed component is mediated by NMDA receptors. […] See Chen, H.-S. V. et al. Neuroscience 86, 1121-1132 (1998).

[2] = system: brain damage after the ischaemic event; settings: given up to 2 hours after the ischaemic event; cited from earlier work
rhodanese = assay: PDI chaperone activity: aggregation of guanidinium-denatured rhodanese; type: biochemical; settings: 1 μM recombinant PDI
Experimental: To determine whether S-nitrosylation affects PDI function, PDI chaperone and isomerase activities were monitored. Chaperone activity was assessed in a standard assay by measuring the degree of aggregation of rhodanese induced by guanidinium, as previously described9. Rhodanese aggregation occurred in a time-dependent manner, and incubation with recombinant wild-type PDI, but not dominantnegative PDI (produced by the N-terminal and C-terminal mutant) (Ko, H. S., et al. J. Biol. Chem., 277, 35386-35392, (2002)), suppressed this aggregation by about 80%. […] Thus, S-nitrosylation inhibited the functional activities of PDI. […] Therefore, the inhibitory effect of PDI on the aggregation of synphilin-1 was investigated, as observed in Lewy body inclusions in the brains of PD patients. First, it was tested if PDI could prevent the ubiquitinated, Lewy-body-like inclusions that are formed in the cytosol after synphilin-1 overexpression in cultured SH-SY5Y cells (See FIG. 2c). […]
Chaperone activity of PDI was measured by analyzing the renaturation (refolding) of denatured rhodanese in the presence of 1 μM PDI or its mutant form (Vuori, K., et al. J. Biol. Chem, 267, 7211-7214, (1992); Horibe, T. et al. J. Biol. Chem. 279, 4604-4611 (2004); Martin, J. et al. Nature 352, 36-42 (1991)). […] The aggregation of denatured rhodanese was monitored by the increase in absorbance at 320 nm. […]

Row | Molecule | scored as hit (significantly blocked calcium entry induced by KA) [1] | block of the NMDA receptor-mediated component of the EPSC (NMDA receptor) | further results
1 | N#Cc1cc2[nH]c(=O)c(=O)[nH]c2cc1[N+](=O)[O-] [CNQX] | positively scored |  | 
2 | O=[N+]([O-])c1cc2nc(O)c(O)nc2cc1[N+](=O)[O-] [DNQX] | scored positively in all three screens |  | 
3 | C[C@]12N[C@H](Cc3ccccc31)c1ccccc12 [MK-801, dizocilpine] |  | complete blockade | 
4 | NS(=O)(=O)c1cccc2c1c([N+](=O)[O-])cc1nc(O)c(O)nc12 [NBQX] | scored positively in all three screens |  | 
5 | CC12CC3CC(C)(C1)CC(N)(C3)C2 [memantine] |  | 10-15% | reduction of brain damage [2]: approximately 50%
6 | wild-type PDI: recombinant wild-type protein-disulphide isomerase |  |  | suppression of rhodanese aggregation (rhodanese): about 80%
